Experimental data from the NIST ThermoML archive (doi:10.1016/j.jct.2006.02.005).
Where “and” joins values, the source holds several entries; their conditions need not be identical. Identical values can stand only once.

Columns and labels:
[1] = Molar enthalpy of transition or fusion
[2] = molar heat capacity at constant pressure; conditions: 101.33 kPa

CC(C)(CO)CO [2,2-dimethyl-1,3-propanediol]
[1]
Conditions | Molar enthalpy of transition or fusion [kcal/mol]
Crystal 1 | 1.01
Crystal 2 | 2.92

Conditions | Normal melting temperature [°C] | Triple point temperature [K]
Crystal 1 | 128.48 | –
Crystal 2 | – | 315.14

[2]
Conditions | molar heat capacity at constant pressure
193.15 K, Crystal 2 | 120.71 J/K/mol and 121.44 J/K/mol
198.15 K, Crystal 2 | 122.48 J/K/mol and 123 J/K/mol
203.15 K, Crystal 2 | 124.15 J/K/mol and 124.36 J/K/mol
208.15 K, Crystal 2 | 123.83 J/K/mol and 125.5 J/K/mol
213.15 K, Crystal 2 | 125.6 J/K/mol and 127.58 J/K/mol
218.15 K, Crystal 2 | 127.48 J/K/mol and 130.08 J/K/mol
223.15 K, Crystal 2 | 130.08 J/K/mol and 132.06 J/K/mol
228.15 K, Crystal 2 | 132.79 J/K/mol and 133.62 J/K/mol
233.15 K, Crystal 2 | 134.98 J/K/mol and 134.87 J/K/mol
238.15 K, Crystal 2 | 135.71 J/K/mol and 136.54 J/K/mol
243.15 K, Crystal 2 | 136.64 J/K/mol and 138.1 J/K/mol
248.15 K, Crystal 2 | 136.64 J/K/mol and 140.5 J/K/mol
253.15 K, Crystal 2 | 138 J/K/mol and 142.37 J/K/mol
258.15 K, Crystal 2 | 139.46 J/K/mol and 144.66 J/K/mol
263.15 K, Crystal 2 | 141.23 J/K/mol and 147.79 J/K/mol
268.15 K, Crystal 2 | 142.89 J/K/mol and 150.6 J/K/mol
273.15 K, Crystal 2 | 145.29 J/K/mol and 153.62 J/K/mol
278.15 K, Crystal 2 | 156.54 J/K/mol and 147.48 J/K/mol
283.15 K, Crystal 2 | 160.08 J/K/mol and 150.18 J/K/mol
288.15 K, Crystal 2 | 164.45 J/K/mol and 153.31 J/K/mol
293.15 K, Crystal 2 | 168.1 J/K/mol and 156.12 J/K/mol
298.15 K, Crystal 2 | 172.06 J/K/mol and 159.25 J/K/mol
303.15 K, Crystal 2 | 176.53 J/K/mol and 163.1 J/K/mol
308.15 K, Crystal 2 | 184.35 J/K/mol and 167.58 J/K/mol
323.15 K, Crystal 1 | 260.17 J/K/mol and 244.86 J/K/mol
328.15 K, Crystal 1 | 268.5 J/K/mol and 247.56 J/K/mol
333.15 K, Crystal 1 | 250.27 J/K/mol and 274.54 J/K/mol
338.15 K, Crystal 1 | 252.15 J/K/mol and 278.81 J/K/mol
343.15 K, Crystal 1 | 254.75 J/K/mol and 282.45 J/K/mol
348.15 K, Crystal 1 | 256.52 J/K/mol and 286.2 J/K/mol
353.15 K, Crystal 1 | 258.71 J/K/mol and 288.81 J/K/mol
358.15 K, Crystal 1 | 260.79 J/K/mol and 291.2 J/K/mol
363.15 K, Crystal 1 | 263.19 J/K/mol and 294.22 J/K/mol
368.15 K, Crystal 1 | 265.69 J/K/mol and 296.93 J/K/mol
373.15 K, Crystal 1 | 268.39 J/K/mol and 299.85 J/K/mol
378.15 K, Crystal 1 | 272.04 J/K/mol and 303.6 J/K/mol
383.15 K, Crystal 1 | 277.04 J/K/mol and 309.64 J/K/mol
388.15 K, Crystal 1 | 285.06 J/K/mol and 322.55 J/K/mol
393.15 K, Crystal 1 | 309.85 J/K/mol and 358.48 J/K/mol
408.15 K, Liquid | 330.26 J/K/mol
413.15 K, Liquid | 339.95 J/K/mol
418.15 K, Liquid | 345.99 J/K/mol
423.15 K, Liquid | 353.38 J/K/mol
